Results: ChEMBL document CHEMBL5724914, “Linking interpersonal differences in gut microbiota composition and drug biotransformation activity” (2024)

Key:
[1] = The drug is tested on Z-028 corresponding to mouse gut metagenome with ENA study accession number: PRJEB37062 and ENA sample accession number: ERS12561827 for biotransformation under anaerobic condition. The drug concentrations were measured over 9 timepoints collected between 0 and 24 hours of incubation by liquid-chromatography-coupled mass spectrometry (LC–MS); details: 2 µM
[2] = The drug is tested on Z-026 corresponding to metagenome with ENA study accession number: PRJEB37062 and ENA sample accession number: ERS12561825 for biotransformation under anaerobic condition. The drug concentrations were measured over 9 timepoints collected between 0 and 24 hours of incubation by liquid-chromatography-coupled mass spectrometry (LC–MS); details: 2 µM
[3] = The drug is tested on Z-024 corresponding to pig gut metagenome with ENA study accession number: PRJEB37062 and ENA sample accession number: ERS12561823 for biotransformation under anaerobic condition. The drug concentrations were measured over 9 timepoints collected between 0 and 24 hours of incubation by liquid-chromatography-coupled mass spectrometry (LC–MS); details: 2 µM
[4] = The drug is tested on Z-023 corresponding to metagenome with ENA study accession number: PRJEB37062 and ENA sample accession number: ERS12561822 for biotransformation under anaerobic condition. The drug concentrations were measured over 9 timepoints collected between 0 and 24 hours of incubation by liquid-chromatography-coupled mass spectrometry (LC–MS); details: 2 µM
[5] = The drug is tested on Z-021 corresponding to metagenome with ENA study accession number: PRJEB37062 and ENA sample accession number: ERS12561820 for biotransformation under anaerobic condition. The drug concentrations were measured over 9 timepoints collected between 0 and 24 hours of incubation by liquid-chromatography-coupled mass spectrometry (LC–MS); details: 2 µM
[6] = The drug is tested on Z-018 corresponding to pig gut metagenome with ENA study accession number: PRJEB37062 and ENA sample accession number: ERS12561817 for biotransformation under anaerobic condition. The drug concentrations were measured over 9 timepoints collected between 0 and 24 hours of incubation by liquid-chromatography-coupled mass spectrometry (LC–MS); details: 2 µM
[7] = The drug is tested on Z-010 corresponding to metagenome with ENA study accession number: PRJEB37062 and ENA sample accession number: ERS12561810 for biotransformation under anaerobic condition. The drug concentrations were measured over 9 timepoints collected between 0 and 24 hours of incubation by liquid-chromatography-coupled mass spectrometry (LC–MS); details: 2 µM
[8] = The drug is tested on Z-009 corresponding to pig gut metagenome with ENA study accession number: PRJEB37062 and ENA sample accession number: ERS12561809 for biotransformation under anaerobic condition. The drug concentrations were measured over 9 timepoints collected between 0 and 24 hours of incubation by liquid-chromatography-coupled mass spectrometry (LC–MS); details: 2 µM
[9] = The drug is tested on WLS-310 corresponding to human gut metagenome with ENA study accession number: PRJEB37062 and ENA sample accession number: ERS12561785 for biotransformation under anaerobic condition. The drug concentrations were measured over 9 timepoints collected between 0 and 24 hours of incubation by liquid-chromatography-coupled mass spectrometry (LC–MS); details: 2 µM
[10] = The drug is tested on WLS-220 corresponding to human gut metagenome with ENA study accession number: PRJEB37062 and ENA sample accession number: ERS12561769 for biotransformation under anaerobic condition. The drug concentrations were measured over 9 timepoints collected between 0 and 24 hours of incubation by liquid-chromatography-coupled mass spectrometry (LC–MS); details: 2 µM
[11] = The drug is tested on WLS-090 corresponding to human gut metagenome with ENA study accession number: PRJEB37062 and ENA sample accession number: ERS12561753 for biotransformation under anaerobic condition. The drug concentrations were measured over 9 timepoints collected between 0 and 24 hours of incubation by liquid-chromatography-coupled mass spectrometry (LC–MS); details: 2 µM
[12] = The drug is tested on WLS-086 corresponding to human gut metagenome with ENA study accession number: PRJEB37062 and ENA sample accession number: ERS12561752 for biotransformation under anaerobic condition. The drug concentrations were measured over 9 timepoints collected between 0 and 24 hours of incubation by liquid-chromatography-coupled mass spectrometry (LC–MS); details: 2 µM
[13] = The drug is tested on WLS-038 corresponding to human gut metagenome with ENA study accession number: PRJEB37062 and ENA sample accession number: ERS12561745 for biotransformation under anaerobic condition. The drug concentrations were measured over 9 timepoints collected between 0 and 24 hours of incubation by liquid-chromatography-coupled mass spectrometry (LC–MS); details: 2 µM
[14] = human gut metagenome, 24 h, 2 µM
[15] = human gut metagenome, 24 h, 2 µM; remark: listed apart in the source
[16] = human gut metagenome, 24 h, 2 µM; remark: listed apart in the source
[17] = human gut metagenome, 24 h, 2 µM; remark: listed apart in the source
[18] = human gut metagenome, 24 h, 2 µM; remark: listed apart in the source
[19] = human gut metagenome, 24 h, 2 µM; remark: listed apart in the source
[20] = human gut metagenome, 24 h, 2 µM; remark: listed apart in the source
Further: call rule not given here.

| SMILES | Bacterial Biotransformation [1] | Bacterial Biotransformation [2] | Bacterial Biotransformation [3] | Bacterial Biotransformation [4] | Bacterial Biotransformation [5] | Bacterial Biotransformation [6] | Bacterial Biotransformation [7] | Bacterial Biotransformation [8] | Bacterial Biotransformation [9] | Bacterial Biotransformation [10] | Bacterial Biotransformation [11] | Bacterial Biotransformation [12] | Bacterial Biotransformation [13] | Bacterial Biotransformation [14] | Bacterial Biotransformation [15] | Bacterial Biotransformation [16] | Bacterial Biotransformation [17] | Bacterial Biotransformation [18] | Bacterial Biotransformation [19] | Bacterial Biotransformation [20] |
| --- | --- | --- | --- | --- | --- | --- | --- | --- | --- | --- | --- | --- | --- | --- | --- | --- | --- | --- | --- | --- |
| COc1ccc([C@@H]2Sc3ccccc3N(CCN(C)C)C(=O)[C@@H]2OC(C)=O)cc1 [DILTIAZEM] | Compound metabolized | Compound NOT metabolized | Compound NOT metabolized | Compound metabolized | Compound NOT metabolized | Compound metabolized | Compound metabolized | Compound metabolized | Compound metabolized | Compound metabolized | Compound metabolized | Compound metabolized | Compound NOT metabolized | Compound NOT metabolized | Compound NOT metabolized | Compound NOT metabolized | Compound metabolized | Compound metabolized | Compound metabolized | Compound metabolized |
| CC(C)(C)NC(=O)[C@H]1CC[C@H]2[C@@H]3CC[C@H]4NC(=O)C=C[C@]4(C)[C@H]3CC[C@]12C [FINASTERIDE] | Compound metabolized | Compound metabolized | Compound metabolized | Compound metabolized | Compound NOT metabolized | Compound metabolized | Compound metabolized | Compound metabolized | Compound metabolized | Compound metabolized | Compound metabolized | Compound metabolized | Compound metabolized | Compound metabolized | Compound metabolized | Compound metabolized | Compound metabolized | Compound metabolized | Compound metabolized | Compound metabolized |
| CC(CCc1ccccc1)NCC(O)c1ccc(O)c(C(N)=O)c1 (stereo not given) [LABETALOL] | Compound NOT metabolized | Compound NOT metabolized | Compound metabolized | Compound metabolized | Compound NOT metabolized | Compound NOT metabolized | Compound NOT metabolized | Compound NOT metabolized | Compound NOT metabolized | Compound NOT metabolized | Compound metabolized | Compound metabolized | Compound NOT metabolized | Compound NOT metabolized | Compound NOT metabolized | Compound NOT metabolized | Compound NOT metabolized | Compound NOT metabolized | Compound NOT metabolized | Compound NOT metabolized |
| CC(C)(C)NCC(O)COc1cccc2c1CC(O)C(O)C2 (stereo not given) [NADOLOL] | Compound NOT metabolized | Compound NOT metabolized | Compound NOT metabolized | Compound NOT metabolized | Compound NOT metabolized | Compound NOT metabolized | Compound metabolized | Compound metabolized | Compound metabolized | Compound NOT metabolized | Compound metabolized | Compound metabolized | Compound NOT metabolized | Compound NOT metabolized | Compound NOT metabolized | Compound NOT metabolized | Compound NOT metabolized | Compound NOT metabolized | Compound NOT metabolized | Compound metabolized |
| CCN(CC)CCNC(=O)c1cc(S(C)(=O)=O)ccc1OC [TIAPRIDE] | Compound NOT metabolized | Compound NOT metabolized | Compound NOT metabolized | Compound NOT metabolized | Compound NOT metabolized | Compound NOT metabolized | Compound NOT metabolized | Compound NOT metabolized | Compound metabolized | Compound metabolized | Compound metabolized | Compound NOT metabolized | Compound NOT metabolized | Compound NOT metabolized | Compound NOT metabolized | Compound NOT metabolized | Compound metabolized | Compound NOT metabolized | Compound NOT metabolized | Compound NOT metabolized |
